Reference: ChEMBL document CHEMBL1201862, “PubChem BioAssay data set” (2004)
Active and inactive are the calls of the source.

Assays:
Caspase-3 = biological target: T1, Caspase-3 (Homo sapiens, UniProt P42574); assay type: functional;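 further: Dose-response selectivity test against caspase-3 for candidate inhibitors of sentrin-specific proteases (SENPs)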
T1 sequence (P42574 whole entry): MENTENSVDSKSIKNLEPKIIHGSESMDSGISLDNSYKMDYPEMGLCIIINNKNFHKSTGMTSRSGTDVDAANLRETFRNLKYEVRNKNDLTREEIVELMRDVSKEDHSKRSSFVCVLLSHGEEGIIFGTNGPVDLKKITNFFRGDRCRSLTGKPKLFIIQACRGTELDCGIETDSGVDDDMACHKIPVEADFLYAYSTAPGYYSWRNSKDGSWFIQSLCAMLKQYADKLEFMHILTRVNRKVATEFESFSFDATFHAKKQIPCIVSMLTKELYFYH

[1] = biological target: T2, Sentrin-specific protease 7 (Homo sapiens, UniProt Q9BQF6); assay type: functional;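 further: Luminescence-based dose-response confirmation of ultra-high-throughput screening hits, measuring inhibition of SENP7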
T2 sequence (Q9BQF6 whole entry): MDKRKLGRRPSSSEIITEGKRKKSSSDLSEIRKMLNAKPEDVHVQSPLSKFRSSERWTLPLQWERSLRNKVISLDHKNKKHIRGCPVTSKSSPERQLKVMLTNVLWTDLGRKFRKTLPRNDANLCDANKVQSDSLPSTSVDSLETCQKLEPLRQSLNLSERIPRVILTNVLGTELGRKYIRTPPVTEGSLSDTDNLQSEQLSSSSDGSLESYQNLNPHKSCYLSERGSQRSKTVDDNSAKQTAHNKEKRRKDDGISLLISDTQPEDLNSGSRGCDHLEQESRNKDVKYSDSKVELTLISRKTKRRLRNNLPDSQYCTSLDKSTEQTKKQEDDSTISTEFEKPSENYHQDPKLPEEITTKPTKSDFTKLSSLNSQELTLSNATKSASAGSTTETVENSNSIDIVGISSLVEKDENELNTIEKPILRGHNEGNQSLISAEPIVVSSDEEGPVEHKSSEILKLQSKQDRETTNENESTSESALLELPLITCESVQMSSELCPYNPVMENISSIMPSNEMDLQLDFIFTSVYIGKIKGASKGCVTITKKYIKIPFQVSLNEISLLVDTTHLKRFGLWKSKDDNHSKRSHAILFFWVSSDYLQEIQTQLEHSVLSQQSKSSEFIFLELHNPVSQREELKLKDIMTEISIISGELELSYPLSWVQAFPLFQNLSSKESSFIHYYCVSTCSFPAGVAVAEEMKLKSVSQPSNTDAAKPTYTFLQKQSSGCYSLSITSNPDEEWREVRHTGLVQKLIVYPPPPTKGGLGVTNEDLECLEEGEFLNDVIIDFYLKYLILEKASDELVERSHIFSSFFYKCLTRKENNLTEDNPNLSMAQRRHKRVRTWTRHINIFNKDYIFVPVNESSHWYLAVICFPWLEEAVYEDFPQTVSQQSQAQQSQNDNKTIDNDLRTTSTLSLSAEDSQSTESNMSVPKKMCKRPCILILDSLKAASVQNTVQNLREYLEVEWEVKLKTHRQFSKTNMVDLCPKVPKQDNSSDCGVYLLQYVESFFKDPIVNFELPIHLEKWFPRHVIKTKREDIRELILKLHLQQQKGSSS

[2] = biological target: T3, Sentrin-specific protease 6 (Homo sapiens, UniProt Q9GZR1); assay type: functional;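 further: Luminescence-based dose-response confirmatory assay of SENP6 inhibition, following up an ultra-high-throughput screen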
T3 sequence (Q9GZR1 whole entry): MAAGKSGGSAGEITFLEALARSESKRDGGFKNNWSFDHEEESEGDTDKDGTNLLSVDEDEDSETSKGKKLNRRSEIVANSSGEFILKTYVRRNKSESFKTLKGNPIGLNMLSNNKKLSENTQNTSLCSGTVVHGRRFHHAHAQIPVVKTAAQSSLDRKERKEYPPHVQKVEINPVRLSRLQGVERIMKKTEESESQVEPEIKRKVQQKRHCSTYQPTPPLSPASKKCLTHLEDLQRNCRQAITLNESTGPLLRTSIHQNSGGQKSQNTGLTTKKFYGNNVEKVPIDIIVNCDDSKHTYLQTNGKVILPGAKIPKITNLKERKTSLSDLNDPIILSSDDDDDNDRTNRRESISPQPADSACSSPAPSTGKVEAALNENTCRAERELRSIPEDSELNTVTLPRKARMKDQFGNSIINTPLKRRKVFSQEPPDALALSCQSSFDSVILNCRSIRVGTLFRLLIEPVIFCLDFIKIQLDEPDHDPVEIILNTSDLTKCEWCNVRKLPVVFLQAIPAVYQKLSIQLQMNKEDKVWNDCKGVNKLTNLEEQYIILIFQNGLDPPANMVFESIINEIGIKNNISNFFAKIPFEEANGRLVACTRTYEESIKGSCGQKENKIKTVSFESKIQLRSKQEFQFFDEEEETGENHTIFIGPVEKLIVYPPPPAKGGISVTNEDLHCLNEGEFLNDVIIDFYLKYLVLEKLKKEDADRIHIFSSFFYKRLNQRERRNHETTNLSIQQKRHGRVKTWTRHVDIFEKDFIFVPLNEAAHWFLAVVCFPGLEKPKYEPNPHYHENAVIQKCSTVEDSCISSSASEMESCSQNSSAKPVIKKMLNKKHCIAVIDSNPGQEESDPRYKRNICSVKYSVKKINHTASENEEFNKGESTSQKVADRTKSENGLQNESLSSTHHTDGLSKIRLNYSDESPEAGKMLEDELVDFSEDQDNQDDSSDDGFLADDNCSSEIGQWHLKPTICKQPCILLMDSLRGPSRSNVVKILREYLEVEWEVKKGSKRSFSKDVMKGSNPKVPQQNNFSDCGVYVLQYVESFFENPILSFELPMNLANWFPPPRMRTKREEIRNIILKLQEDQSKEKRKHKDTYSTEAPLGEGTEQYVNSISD

[3] = biological target: T4, Sentrin-specific protease 8 (Homo sapiens, UniProt Q96LD8); assay type: functional;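 further: luminescence read-out of SENP8 inhibition, dose-response confirmation following an ultra-high-throughput screen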
T4 sequence (Q96LD8 whole entry): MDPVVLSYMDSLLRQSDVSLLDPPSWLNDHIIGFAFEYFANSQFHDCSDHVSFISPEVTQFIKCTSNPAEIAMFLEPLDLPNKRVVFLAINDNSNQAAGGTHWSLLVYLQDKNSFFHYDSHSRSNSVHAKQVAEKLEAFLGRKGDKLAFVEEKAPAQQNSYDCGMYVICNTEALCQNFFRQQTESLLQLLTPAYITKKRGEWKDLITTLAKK

[4] = biological target: T5, Calpain-2 catalytic subunit (Sus scrofa, UniProt P43367); assay: pig calpain II inhibitor potency, dose response, biochemical, fluorogenic peptide substrate (AID 1420); assay type: functional
T5 sequence (P43367 whole entry): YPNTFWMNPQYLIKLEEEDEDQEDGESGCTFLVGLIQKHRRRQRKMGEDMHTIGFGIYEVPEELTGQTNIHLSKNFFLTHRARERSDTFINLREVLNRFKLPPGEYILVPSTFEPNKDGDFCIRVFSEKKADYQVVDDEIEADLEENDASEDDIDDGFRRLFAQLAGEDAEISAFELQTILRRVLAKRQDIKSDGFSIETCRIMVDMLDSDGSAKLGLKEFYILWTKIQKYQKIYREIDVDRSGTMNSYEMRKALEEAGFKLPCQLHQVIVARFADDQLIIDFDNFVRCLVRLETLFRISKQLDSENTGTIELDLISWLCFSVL

[5] = cytotoxicity in HEK-293T cells, dose response, cytotoxicity control for TCR NF-kB inhibitor project, luminescence, T-cell screen hits (AID 489026); assay type: functional, cell-based;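 further: cells exposed to compound about 14 hours before the viability readout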
HEK293 = assay: inhibitors of LMP1-driven NF-kB reporter, dose response, cell-based, HEK293, luciferase, cherry-pick (AID 588343); assay type: functional; conditions: Homo sapiens
[6] = Shn3 3'UTR reporter inhibitors, dose response, cell-based, Clone20 osteoblasts, firefly luciferase, cherry-picked (AID 624132); assay type: functional;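 further: firefly luciferase luminescence from reporter carrying the Shn3 3'UTR in osteoblasts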
[7] = HepG2 cell cytotoxicity, dose response, cytotoxicity control for Shn3 inhibitor project, CellTiter-Glo, cherry-picked (AID 624134); assay type: functional, cell-based
[8] = control 3'UTR Renilla luciferase suppression, dose response, counter-screen for Shn3 inhibitor project, cell-based, Clone20-Shn3RL, cherry-picked (AID 624133); assay type: functional
[9] = biological target: Glucose-6-phosphate 1-dehydrogenase (Homo sapiens, UniProt P11413); assay: human G6PD enzyme inhibitors, dose response, selectivity assay for P. falciparum G6PD inhibitor project, biochemical, fluorescence (AID 504792); assay type: functional
Sequence of Glucose-6-phosphate 1-dehydrogenase (P11413 whole entry): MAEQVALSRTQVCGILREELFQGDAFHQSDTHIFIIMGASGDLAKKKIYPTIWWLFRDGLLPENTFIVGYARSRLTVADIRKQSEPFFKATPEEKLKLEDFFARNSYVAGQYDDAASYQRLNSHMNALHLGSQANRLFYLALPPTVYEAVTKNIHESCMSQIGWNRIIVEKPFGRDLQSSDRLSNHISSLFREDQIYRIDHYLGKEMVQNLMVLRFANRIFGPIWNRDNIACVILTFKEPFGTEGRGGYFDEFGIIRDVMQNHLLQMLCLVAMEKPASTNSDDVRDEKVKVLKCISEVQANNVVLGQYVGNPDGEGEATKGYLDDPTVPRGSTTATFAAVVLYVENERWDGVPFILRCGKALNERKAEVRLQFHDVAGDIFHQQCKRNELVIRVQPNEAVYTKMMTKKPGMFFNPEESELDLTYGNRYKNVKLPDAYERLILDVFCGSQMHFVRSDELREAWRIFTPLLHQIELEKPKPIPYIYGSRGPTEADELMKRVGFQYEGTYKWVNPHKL

[10] = tested on: Streptococcus sp. 'group A'; assay: growth inhibition of control SK(-) GAS strain, dose response, counter-screen for streptokinase expression inhibitor project, luminescence, kanamycin, BacTiterGlo, confirmation (AID 1900); assay type: functional, organism-based
[11] = biological target: T6, Heat shock factor protein 1 (Mus musculus, UniProt P38532); assay: inhibition of MG132-induced HSE-luciferase signal, confirmation, cell-based, NIH3T3, luminescence, dose retest (AID 2382); assay type: functional;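 further: NIH3T3 fibroblasts with HSF1-driven luciferase reporter stressed by proteasome inhibitor MG132; luminescence from HSF1-driven luciferase expression after 8 hours of MG132 stress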
T6 sequence (P38532 whole entry): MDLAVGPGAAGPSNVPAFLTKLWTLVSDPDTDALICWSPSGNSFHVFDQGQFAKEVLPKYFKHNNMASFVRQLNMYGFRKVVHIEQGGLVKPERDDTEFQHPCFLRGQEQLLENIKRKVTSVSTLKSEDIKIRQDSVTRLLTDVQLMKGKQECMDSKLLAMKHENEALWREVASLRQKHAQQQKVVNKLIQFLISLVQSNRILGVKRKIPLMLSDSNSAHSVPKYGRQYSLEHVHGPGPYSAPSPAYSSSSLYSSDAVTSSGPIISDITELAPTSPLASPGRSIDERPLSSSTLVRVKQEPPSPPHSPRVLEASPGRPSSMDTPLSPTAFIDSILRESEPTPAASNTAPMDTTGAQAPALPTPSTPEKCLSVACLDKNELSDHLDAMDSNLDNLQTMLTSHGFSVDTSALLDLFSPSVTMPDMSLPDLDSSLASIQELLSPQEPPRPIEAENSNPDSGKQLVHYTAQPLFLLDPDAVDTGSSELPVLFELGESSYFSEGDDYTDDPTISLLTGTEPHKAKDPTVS

Streptokinase A = biological target: T7, Streptokinase A (Streptococcus pyogenes serotype M1, UniProt P10520); assay: S. pyogenes streptokinase expression inhibitors, potency, dose response, plasminogen activation absorbance, OD405 (AID 1914); assay type: functional, Streptococcus pyogenes M1 GAS;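 further: secreted streptokinase activity via plasminogen activation per viability signal from cell pellet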
T7 sequence (P10520 whole entry): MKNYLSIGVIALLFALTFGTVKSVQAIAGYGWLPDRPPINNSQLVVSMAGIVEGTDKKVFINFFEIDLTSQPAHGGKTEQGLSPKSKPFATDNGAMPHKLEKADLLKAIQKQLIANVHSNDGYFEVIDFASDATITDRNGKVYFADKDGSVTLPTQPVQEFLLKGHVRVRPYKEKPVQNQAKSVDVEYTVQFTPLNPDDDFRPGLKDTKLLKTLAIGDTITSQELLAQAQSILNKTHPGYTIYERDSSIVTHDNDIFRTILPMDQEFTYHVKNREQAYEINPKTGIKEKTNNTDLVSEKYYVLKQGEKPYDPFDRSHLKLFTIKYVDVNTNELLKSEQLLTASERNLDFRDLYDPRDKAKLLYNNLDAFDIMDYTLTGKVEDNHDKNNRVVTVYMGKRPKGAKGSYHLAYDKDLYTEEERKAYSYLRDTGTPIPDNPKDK

Streptococcus = assay: Group A Streptococcus viability loss, dose response, counter-screen for streptokinase expression inhibitor project, luminescence, BacTiterGlo (AID 1915); assay type: functional, organism-based;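 further: potency for reduction of bacterial viability or growth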
Genome polyprotein = Genome polyprotein (dengue virus type 2, UniProt P29990); assay: Dengue-2 NS5 methyltransferase inhibitors, primary screen, biochemical, confirmation dose response (AID 588689); assay type: functional
Sequence of Genome polyprotein (P29990 2492-3391 limits assumed): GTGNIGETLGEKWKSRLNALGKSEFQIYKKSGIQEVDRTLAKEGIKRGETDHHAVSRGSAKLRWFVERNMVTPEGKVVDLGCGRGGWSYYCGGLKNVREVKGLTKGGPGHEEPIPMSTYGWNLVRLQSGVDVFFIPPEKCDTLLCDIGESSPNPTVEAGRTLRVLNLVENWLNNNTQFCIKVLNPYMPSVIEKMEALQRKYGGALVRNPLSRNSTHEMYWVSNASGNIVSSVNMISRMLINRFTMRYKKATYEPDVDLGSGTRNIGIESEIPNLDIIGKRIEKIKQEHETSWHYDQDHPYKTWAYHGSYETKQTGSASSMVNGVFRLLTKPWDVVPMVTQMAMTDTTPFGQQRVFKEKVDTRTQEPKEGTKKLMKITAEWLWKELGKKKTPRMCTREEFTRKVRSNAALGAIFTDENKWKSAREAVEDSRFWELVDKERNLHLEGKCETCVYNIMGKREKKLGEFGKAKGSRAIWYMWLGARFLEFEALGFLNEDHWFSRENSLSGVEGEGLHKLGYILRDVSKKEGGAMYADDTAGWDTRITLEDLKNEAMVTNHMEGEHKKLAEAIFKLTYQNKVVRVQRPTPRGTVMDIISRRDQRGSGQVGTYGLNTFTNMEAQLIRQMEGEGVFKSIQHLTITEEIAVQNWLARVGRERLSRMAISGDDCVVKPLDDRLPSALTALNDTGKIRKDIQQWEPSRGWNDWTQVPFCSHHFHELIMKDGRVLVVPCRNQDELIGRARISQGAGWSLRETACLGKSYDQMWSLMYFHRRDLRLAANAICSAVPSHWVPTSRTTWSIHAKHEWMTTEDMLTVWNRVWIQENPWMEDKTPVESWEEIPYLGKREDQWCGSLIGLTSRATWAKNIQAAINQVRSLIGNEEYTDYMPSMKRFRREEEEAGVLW

[12] = HEp-2 cell cytotoxicity, dose response, cytotoxicity control for RSV inhibitor project, HTS (AID 2410); assay type: functional; conditions: human respiratory syncytial virus
Cytochrome P450 2D6 = Cytochrome P450 2D6 (Homo sapiens, UniProt P10635);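 further: CYP2D6 member of a cytochrome P450 panel assay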
Sequence of Cytochrome P450 2D6 (P10635 whole entry): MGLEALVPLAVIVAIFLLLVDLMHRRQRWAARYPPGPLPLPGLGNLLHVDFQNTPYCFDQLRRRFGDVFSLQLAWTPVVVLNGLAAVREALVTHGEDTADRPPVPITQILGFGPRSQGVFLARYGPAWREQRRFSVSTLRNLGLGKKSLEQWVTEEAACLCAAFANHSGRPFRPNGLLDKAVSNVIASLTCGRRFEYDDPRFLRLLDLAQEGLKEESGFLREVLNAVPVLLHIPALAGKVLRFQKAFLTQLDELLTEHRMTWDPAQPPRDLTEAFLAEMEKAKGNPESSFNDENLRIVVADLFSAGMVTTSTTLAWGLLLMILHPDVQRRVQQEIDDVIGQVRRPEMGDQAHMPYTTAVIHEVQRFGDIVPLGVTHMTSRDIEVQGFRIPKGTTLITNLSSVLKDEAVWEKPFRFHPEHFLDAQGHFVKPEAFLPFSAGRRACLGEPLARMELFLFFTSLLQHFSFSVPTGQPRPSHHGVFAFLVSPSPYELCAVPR

SMILES | IC50 (Caspase-3) | IC50 [1] | IC50 [2] | IC50 [3] | AC50 (HEK293) | IC50 [9] | other results
CCOC(=O)c1c(C)[nH]c(N=Nc2cccc(C)c2)c1C | 40.3 µM (active) | 5.37 µM (active) | 18 µM (active) | 14.7 µM (active) |  |  | 
CCCc1ccc(OC(=O)c2ccc(O)cc2Cl)cc1 | 38.4 µM (active) | 8.1 µM (active) | 8.84 µM (active) | 9.08 µM (active) |  |  | IC50 [4]: 3.76 µM (not active)
COc1cccc(-c2cc(C(=O)Nc3cc(C)n(Cc4ccc(Cl)cc4)n3)no2)c1 |  |  |  |  |  |  | IC50 [5]: > 80 µM (inactive)
Fc1ccc2[nH]c3c(N4CCN(c5ccccc5)CC4)ncnc3c2c1 |  |  |  |  | 6.19 µM (active) |  | AC50 [6]: 3.78 µM (active); AC50 [7]: 31.5 µM (active); AC50 [8]: 5.5 µM (active)
[O-]/[N+](=C\c1ccncc1)c1ccccc1 |  |  |  |  |  | > 80 µM (inactive) | 
O=C(Nc1nnc(S(=O)(=O)N2CCCCC2)s1)c1cccc(Br)c1 |  |  |  |  |  | > 80 µM (inactive) | 
O=C(O)CN1C(=O)/C(=C\c2ccccc2OCc2ccc(Cl)cc2Cl)SC1=S |  |  |  |  | 12.7 µM (active) |  | EC50 [10]: 4.28 µM (active); EC50 [11]: 2.58 µM (active); EC50 (Streptokinase A): 17.9 µM (inconclusive); EC50 (Streptococcus): 32.4 µM (active); IC50 (Genome polyprotein): 87.6 µM (active)
Nc1ccccc1C#Cc1ccc([N+](=O)[O-])cc1 | 23.2 µM (active) | 6.02 µM (active) | 31 µM (active) | 80 µM (active) |  |  | 
O=C(N/N=C/c1cccc(O)c1)c1ccc2c(c1)OCCO2 |  |  |  |  | 0.889 µM (active) |  | 
Cc1c(Cl)c([N+](=O)[O-])nn1Cc1ccc(C(=O)N/N=C\c2cccc(Br)c2)o1 |  |  |  |  |  | > 80 µM (inactive) | CC50 [12]: 39.4 µM (active); AC50 (Cytochrome P450 2D6): 25.1 µM (inconclusive)
